Experimental data published in patent US20130071897A1, “METHOD FOR CONTROLLING UNDESIRABLE BYPRODUCTS FORMATION CAUSED BY CONTAMINATING ORGANISMS IN THE PRODUCTION OF ETHANOL FROM SYNGAS” (COSKATA, INC., priority 2011, published 2013).
Values joined by “and” are separate entries in the source; they are usually repeats but may differ in a detail not shown here. Identical values can stand only once.

Key:
[1] = tested on: Clostridium tyrobutyricum; assay: Serum bottle batch fermentation of Clostridium tyrobutyricum on fructose, optical density; assay type: cell-based; settings: duplicates A and B; for O.D. Response: Table 17
Description: Ethyl 3-(trifluoromethyl)benzoate is evaluated in a series of batch fermentations to determine the growth response of butyrogens to the presence of this compound at varying concentrations. The batch fermentations are conducted by anoxically filling 100 mL serum bottles with 15 mL of media having the composition given in Tables 12 and 13. About 0.15 mL of a 50% w/w solution of fructose in water (final fructose concentration about 5 g/L) is provided in the bottles. Duplicate runs are conducted for each concentration.
(§1) Each bottle is inoculated with 1.5 mL of seed culture inoculum of the strict butyrogen Clostridium tyrobutyricum, which has an OD of about 0.40 (which upon a 10 times dilution provides a starting OD for the fermentation of about 0.04). The bottles are maintained at a temperature of 37° C. Two hours after inoculation of the bottles with the bacteria, the compound is added to different bottles as a solution in 50 μL of N-methylpyrrolidone in the amounts indicated in Table 15. The fermentation process is allowed to progress at 37° C. At selected intervals of time, bacterial growth is measured by reading the optical density (OD) of the fermentation liquid. Optical density is measured by anoxically removing an aliquot of fermentation liquid and adding it to a disposable cuvette. OD's ranging between 0.01 and 0.4 are measured directly, while OD's greater than 0.4 are measure after performing a 1/10 dilution with water.
In this example ethyl 4,4,4-trifluoro-3-(trifluoromethyl)crotonate and ethyl 3-trifluoromethyl-4-methoxybenzoate are evaluated by batch fermentation. The batch fermentations are conducted by anoxically filling 100 mL serum bottles with 15 mL of media having the composition given in Tables 12 and 13. About 0.15 mL of a 50% w/w solution of fructose in water (final fructose concentration about 5 g/L) is provided in the bottles. Duplicate runs are conducted for each concentration.
as §1, with “of about 0.42 (which upon” for “of about 0.40 (which upon”, “of about 0.042). The bottles” for “of about 0.04). The bottles”, “in Table 16 and 17. The fermentation” for “in Table 15. The fermentation”, “0.4 are measured after performing” for “0.4 are measure after performing”

[2] = tested on: acyl-CoA dehydrogenases; assay: In vitro acyl-CoA dehydrogenase ferrocenium assay with C. tyrobutyricum cell-free extract; assay type: biochemical; settings: 0.5 to 10 mM compound; rate of ferrocenium reduction at 300 nm
Description: Lehman, et al., in An Acyl-Coenzyme A Dehydrogenase Assay Utilizing the Ferricenium Ion, Analytical Biochemistry 186, pages 280-284 (1990), disclose an in vitro assay screening technique for acyl-CoA dehydrogenases for determining enzyme deficiencies in children. An adaptation of this technique was explored as a potential screening method for ascertaining potential butyrogen inhibitors. An aqueous assay liquor is prepared such that each 1 milliliter sample contains 50 mM of TrisHCl buffer (pH 7.6); 0.05 mM of butyryl-CoA; 5 micromoles of FAD (flavin adenine dinucleotide) and 0.4 mM of ferrocenium. Whole cells of C. tyrobutyricum are lysed and are added to the assay liquor. […] The abbreviation mM stands for millimolar. To assure metabolic consistency among the samples a master batch of C. tyrobutyricum is prepared and harvested at the early log growth stage (approximate O.D. of between about 0.5 and 0.7). The master batch fermentation broth is centrifuged and rinsed with 50 mM TrisHCl buffer (pH 7.6), centrifuged and reconstituted with 50 mM TrisHCl buffer (pH 7.6) to be 10 times more concentrated than the original master batch. Aliquots of about 0.5 milliliter are placed into cryogenic vials (about 1.8 milliliter capacity) and frozen at −80° C. until needed. When needed, a vial is placed in an anoxic Coy chamber and allowed to thaw to room temperature. Once thawed, the cells are added to a 15 mL centrifuge tube and diluted with 0.5 mL of a 2 mg/mL solution of lysozyme (purchased from Aldrich) in 50 mM Tris-HCl (final concentration of lysozyme is about 1 mg/mL). The centrifuge tube is inverted 5 times, removed from the Coy chamber and allowed to incubate at 37° C. for 30 minutes. […] The centrifuge tube is vortexed in the Coy chamber for about 30 seconds, removed from the chamber and centrifuged for 15 minutes at 4000 rpm and 4° C. The tube is returned to the chamber and the cell-free extract (supernatant) is used to prepare the above described samples. The samples are analyzed at various times by absorbance spectroscopy at 300 nm using a Thermo Scientific Evolution 300 UV/Vis spectrophotometer with a 7-cuvette carousel and Starna quartz cuvettes with a septum cap to determine the amount of reduction of ferrocenium. The sample is at laboratory temperature and is maintained under anaerobic conditions. Typically, the absorbance is measured over a period of about 10 to 20 minutes which is sufficient time for the absorbance to stop changing. A linear slope of the rate of change in absorbance during the period that the absorbance is changing is determined using Microsoft Excel® 2010 linear regression to generate a straight line from the data points. The more gradual the slope, the better inhibition because the enzyme is slower at reducing the ferrocenium in the assay sample. A dose-response curve is then determined for each compound by plotting the linear slope against the respective compound concentration. A linear slope is then determined for each compound using Microsoft Excel® 2010 linear regression to generate a straight line from the data points. The steeper the dose-response slope, the better the inhibition because the increased concentration of the compound causes more of a difference in enzyme activity. The dose-response slope generally has a broad standard of deviation due to experimental imprecision and slope determinations.

[3] = tested on: Clostridium tyrobutyricum; assay: Butyric acid by gas chromatography in Clostridium tyrobutyricum batch fermentations; assay type: cell-based; settings: for Butyrate Production: Table 19, duplicates A and B
Description: The concentration of butyric acid is determined by gas chromatography for several of the above samples at the stated points in time. The butyrate production is calculated based upon peak area calculations generated by the gas chromatograph. At 11 hours, the concentration of butyric acid for each of the controls is about 0.95 gram per liter, and the concentration of butyric acid for the samples containing 500 ppm of the inhibitor are about 0.6 gram per liter.
The concentration of butyric acid is determined by gas chromatography using the procedure set forth in Example 13. The control is reported only in Table 18.

What does the source list for `CCOC(=O)c1cccc(C(F)(F)F)c1` [Ethyl 3-trifluormethylbenzoate]?
O.D. Response to Varying Inhibitor Concentrations ([1]; 500 ppm, 0 Hours, added 2 h after inoculation): 0.04; O.D. Response to Varying Inhibitor Concentrations ([1]; 500 ppm, 2 Hours, added 2 h after inoculation): 0.09; O.D. Response to Varying Inhibitor Concentrations ([1]; 500 ppm, 3.5 Hours): 0.14; O.D. Response to Varying Inhibitor Concentrations ([1]; 500 ppm, 5.25 Hours, listed as Ethyl 3-(trifluoromethyl)benzoate): 0.21 and 0.23; O.D. Response to Varying Inhibitor Concentrations ([1]; 500 ppm, 11 Hours, listed as Ethyl 3-(trifluoromethyl)benzoate): 0.90 and 0.89; O.D. Response to Varying Inhibitor Concentrations ([1]; 500 ppm, 20.5 Hours, listed as Ethyl 3-(trifluoromethyl)benzoate): 1.53 and 1.44; O.D. Response to Varying Inhibitor Concentrations ([1]; 1000 ppm, 0 Hours, added 2 h after inoculation): 0.04; O.D. Response to Varying Inhibitor Concentrations ([1]; 1000 ppm, 2 Hours, added 2 h after inoculation): 0.09; O.D. Response to Varying Inhibitor Concentrations ([1]; 1000 ppm, 3.5 Hours): 0.15; O.D. Response to Varying Inhibitor Concentrations ([1]; 1000 ppm, 5.25 Hours, listed as Ethyl 3-(trifluoromethyl)benzoate): 0.21 and 0.22; O.D. Response to Varying Inhibitor Concentrations ([1]; 1000 ppm, 11 Hours, listed as Ethyl 3-(trifluoromethyl)benzoate): 0.90 and 0.87; O.D. Response to Varying Inhibitor Concentrations ([1]; 1000 ppm, 20.5 Hours, listed as Ethyl 3-(trifluoromethyl)benzoate): 1.42 and 1.37; Dose-Response Slope [2]: 9; Concentration of butyric acid ([3]; 500 ppm, at 11 hours): about 0.6 gram per liter

For `CCOC(=O)c1ccc(OC)c(C(F)(F)F)c1` [ethyl 3-trifluoromethyl-4-methoxybenzoate], which “O.D. Response” value ([1]; 5 mM, 0 Hours, added 2 h after inoculation) is on record?
The value was 0.42.

And the “O.D. Response” value ([1]; 5 mM, 2 Hours, added 2 h after inoculation)?
Its value is 0.11 and 0.12.

What about the “O.D. Response” value ([1]; 5 mM, 4.5 Hours) of the same compound?
The value was 0.20 and 0.18.

And the “O.D. Response” value ([1]; 5 mM, 6 Hours)?
Its value is 0.16 and 0.10.

And the “O.D. Response” value ([1]; 5 mM, 24 Hours)?
Its value is 1.23 and 0.91.

What about the “O.D. Response” value ([1]; 10 mM, 0 Hours, added 2 h after inoculation) of the same compound?
The value was 0.42.

And the “O.D. Response” value ([1]; 10 mM, 2 Hours, added 2 h after inoculation)?
The value was 0.11.

And the “O.D. Response” value ([1]; 10 mM, 4.5 Hours)?
The value was 0.24 and 0.23.

What about the “O.D. Response” value ([1]; 10 mM, 6 Hours) of the same compound?
Its value is 0.12 and 0.13.

What about the “O.D. Response” value ([1]; 10 mM, 24 Hours) of the same compound?
Its value is 1.22 and 1.19.

What about the “Butyrate Production” value ([3]; 5 mM, 6 Hours) of the same compound?
Its value is 0.19 grams per liter and 0.10 grams per liter.

What about the “Butyrate Production” value ([3]; 10 mM, 2 Hours) of the same compound?
Its value is 0.03 grams per liter.

What about the “Butyrate Production” value ([3]; 10 mM, 4.5 Hours) of the same compound?
The value was 0.69 grams per liter and 0.67 grams per liter.

And the “Butyrate Production” value ([3]; 10 mM, 6 Hours)?
The value was 0.11 grams per liter and 0.10 grams per liter.

What about the “Butyrate Production” value ([3]; 10 mM, 24 Hours) of the same compound?
Its value is 0.19 grams per liter and 0.17 grams per liter.
